Measured values: ChEMBL document CHEMBL1131749, “Landomycin A inhibits DNA synthesis and G1/S cell cycle progression” (1999)

Legend:
Type in all cases: functional
Mus musculus [1] = species: Mus musculus; test: Inhibition of uptake of [3H]thymidine into DNA by murine smooth cells at a concentration of 20 nM after 16 hours
Mus musculus [2] = species: Mus musculus; test: Inhibition of uptake of [3H]-thymidine into DNA by murine smooth cells at a concentration of 80 nM after 20 hours
Mus musculus [3] = species: Mus musculus; test: Inhibition of uptake of [3H]thymidine into DNA by murine smooth cells at a concentration of 200 nM after 16 hours
Mus musculus [4] = species: Mus musculus; test: Inhibition of uptake of [3H]thymidine into DNA by murine smooth cells at a concentration of 80 nM after 24 hours
Mus musculus [5] = species: Mus musculus; test: Inhibition of uptake of [3H]thymidine into DNA by murine smooth cells at a concentration of 20 nM after 24 hours
Mus musculus [6] = species: Mus musculus; test: Inhibition of uptake of [3H]thymidine into DNA by murine smooth cells at a concentration of 200 nM after 20 hours
Mus musculus [7] = species: Mus musculus; test: Inhibition of uptake of [3H]thymidine into DNA by murine smooth cells at a concentration of 200 nM after 24 hours
Mus musculus [8] = species: Mus musculus; test: Inhibition of uptake of [3H]thymidine into DNA by murine smooth cells at a concentration of 80 nM after 16 hours
Mus musculus [9] = species: Mus musculus; test: Inhibition of uptake of [3H]thymidine into DNA by murine smooth cells at a concentration of 20 nM after 20 hours

Question: `Cc1cc(O)c2c(c1)C[C@@H](O)C1=C2C(=O)c2c(O)ccc(O[C@H]3C[C@@H](O)[C@H](O[C@H]4C[C@@H](O[C@H]5CC[C@H](O[C@H]6C[C@@H](O)[C@H](O[C@H]7C[C@@H](O[C@H]8CC[C@H](O)[C@H](C)O8)[C@H](O)[C@@H](C)O7)[C@@H](C)O6)[C@H](C)O5)[C@H](O)[C@@H](C)O4)[C@@H](C)O3)c2C1=O` [LANDOMYCIN A] was tested. Which Inhibition (Mus musculus [1]) did it give?
Answer: 10000 c.p.m./Abs

Question: What about the Inhibition (Mus musculus [2]) of the same compound?
Answer: 30000 c.p.m./Abs

Question: And the Inhibition (Mus musculus [3])?
Answer: 0 c.p.m./Abs

Question: What about the Inhibition (Mus musculus [4]) of the same compound?
Answer: 60000 c.p.m./Abs

Question: What about the Inhibition (Mus musculus [5]) of the same compound?
Answer: 65000 c.p.m./Abs

Question: What about the Inhibition (Mus musculus [6]) of the same compound?
Answer: 5000 c.p.m./Abs

Question: What about the Inhibition (Mus musculus [7]) of the same compound?
Answer: 20000 c.p.m./Abs

Question: And the Inhibition (Mus musculus [8])?
Answer: 5000 c.p.m./Abs

Question: What about the Inhibition (Mus musculus [9]) of the same compound?
Answer: 45000 c.p.m./Abs
